Experimental data reported in the supplement of paper PMC10307832.

What was measured:
Assay in all cases: relative viability (nuclei count vs DMSO), 5 days (fraction); higher = more cells survive
COR-L 105 = tested on: COR-L 105
Procedure, shortened: (§1)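 One day after seeding in 1536-well plates, lung cancer cell lines were dosed by pin tool. Dosing was either single-drug or a fixed anchor-drug dose plus five library-drug doses (not always all listed) in √10 steps. After 5 days, nuclei were stained in one fix-and-stain step and counted on 4× images, and relative viability is the nuclei count of treated wells over that of vehicle wells, given as the median of duplicate plates.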

COR-L23 = tested on: COR-L23
Procedure, shortened: as §1

HARA = tested on: HARA
Procedure, shortened: as §1

HCC-15 = tested on: HCC-15
Procedure, shortened: as §1

HOP-62 = tested on: HOP-62
Procedure, shortened: as §1

NCI-H1355 = tested on: NCI-H1355
Procedure, shortened: as §1

NCI-H1395 = tested on: NCI-H1395
Procedure, shortened: as §1

NCI-H1734 = tested on: NCI-H1734
Procedure, shortened: as §1

NCI-H1755 = tested on: NCI-H1755
Procedure, shortened: as §1

NCI-H1792 = tested on: NCI-H1792
Procedure, shortened: as §1

NCI-H1793 = tested on: NCI-H1793
Procedure, shortened: as §1

NCI-H1993 = tested on: NCI-H1993
Procedure, shortened: as §1

NCI-H2009 = tested on: NCI-H2009
Procedure, shortened: as §1

NCI-H2170 = tested on: NCI-H2170
Procedure, shortened: as §1

NCI-H2347 = tested on: NCI-H2347
Procedure, shortened: as §1

NCI-H358 = tested on: NCI-H358
Procedure, shortened: as §1

NCI-H522 = tested on: NCI-H522
Procedure, shortened: as §1

NCI-H647 = tested on: NCI-H647
Procedure, shortened: as §1

NCI-H838 = tested on: NCI-H838
Procedure, shortened: as §1

SK-MES-1 = tested on: SK-MES-1
Procedure, shortened: as §1

UMC-11 = tested on: UMC-11
Procedure, shortened: as §1

## Cc1sc2c(c1C)C(c1ccc(Cl)cc1)=N[C@@H](CC(=O)OC(C)(C)C)c1nnc(C)n1-2 [JQ1] + Nc1ncn([C@H]2C[C@H](O)[C@@H](CO)O2)c(=O)n1 [Decitabine] (partner 2 µM)
COR-L 105; first compound 0.04 µM
  relative viability: 0.558
COR-L 105; first compound 0.1265 µM
  relative viability: 0.457
COR-L 105; first compound 0.4 µM
  relative viability: 0.399
COR-L 105; first compound 1.265 µM
  relative viability: 0.33
COR-L 105; first compound 4 µM
  relative viability: 0.386
COR-L23; first compound 0.04 µM
  relative viability: 0.421
COR-L23; first compound 0.1265 µM
  relative viability: 0.351
COR-L23; first compound 0.4 µM
  relative viability: 0.387
COR-L23; first compound 1.265 µM
  relative viability: 0.272
COR-L23; first compound 4 µM
  relative viability: 0.332
HARA; first compound 0.04 µM
  relative viability: 0.617
HARA; first compound 0.1265 µM
  relative viability: 0.49
HARA; first compound 0.4 µM
  relative viability: 0.457
HARA; first compound 1.265 µM
  relative viability: 0.385
HARA; first compound 4 µM
  relative viability: 0.249
HCC-15; first compound 0.04 µM
  relative viability: 0.617
HCC-15; first compound 0.1265 µM
  relative viability: 0.491
HCC-15; first compound 0.4 µM
  relative viability: 0.6
HCC-15; first compound 1.265 µM
  relative viability: 0.406
HCC-15; first compound 4 µM
  relative viability: 0.408
HOP-62; first compound 0.04 µM
  relative viability: 0.238
HOP-62; first compound 0.1265 µM
  relative viability: 0.19
HOP-62; first compound 0.4 µM
  relative viability: 0.201
HOP-62; first compound 1.265 µM
  relative viability: 0.156
HOP-62; first compound 4 µM
  relative viability: 0.128
NCI-H1355; first compound 0.04 µM
  relative viability: 0.348
NCI-H1355; first compound 0.1265 µM
  relative viability: 0.342
NCI-H1355; first compound 0.4 µM
  relative viability: 0.337
NCI-H1355; first compound 1.265 µM
  relative viability: 0.319
NCI-H1355; first compound 4 µM
  relative viability: 0.249
NCI-H1395; first compound 0.04 µM
  relative viability: 0.683
NCI-H1395; first compound 0.1265 µM
  relative viability: 0.701
NCI-H1395; first compound 0.4 µM
  relative viability: 0.71
NCI-H1395; first compound 1.265 µM
  relative viability: 0.587
NCI-H1395; first compound 4 µM
  relative viability: 0.457
NCI-H1734; first compound 0.04 µM
  relative viability: 0.492
NCI-H1734; first compound 0.1265 µM
  relative viability: 0.549
NCI-H1734; first compound 0.4 µM
  relative viability: 0.523
NCI-H1734; first compound 1.265 µM
  relative viability: 0.408
NCI-H1734; first compound 4 µM
  relative viability: 0.364
NCI-H1755; first compound 0.04 µM
  relative viability: 0.744
NCI-H1755; first compound 0.1265 µM
  relative viability: 0.738
NCI-H1755; first compound 0.4 µM
  relative viability: 0.747
NCI-H1755; first compound 1.265 µM
  relative viability: 0.731
NCI-H1755; first compound 4 µM
  relative viability: 0.719
NCI-H1792; first compound 0.04 µM
  relative viability: 0.477
NCI-H1792; first compound 0.1265 µM
  relative viability: 0.729
NCI-H1792; first compound 0.4 µM
  relative viability: 0.525
NCI-H1792; first compound 1.265 µM
  relative viability: 0.334
NCI-H1792; first compound 4 µM
  relative viability: 0.187
NCI-H1793; first compound 0.04 µM
  relative viability: 0.557
NCI-H1793; first compound 0.1265 µM
  relative viability: 0.433
NCI-H1793; first compound 0.4 µM
  relative viability: 0.468
NCI-H1793; first compound 1.265 µM
  relative viability: 0.418
NCI-H1793; first compound 4 µM
  relative viability: 0.484
NCI-H1993; first compound 0.04 µM
  relative viability: 0.586
NCI-H1993; first compound 0.1265 µM
  relative viability: 0.636
NCI-H1993; first compound 0.4 µM
  relative viability: 0.553
NCI-H1993; first compound 1.265 µM
  relative viability: 0.538
NCI-H1993; first compound 4 µM
  relative viability: 0.475
NCI-H2009; first compound 0.04 µM
  relative viability: 0.38
NCI-H2009; first compound 0.1265 µM
  relative viability: 0.296
NCI-H2009; first compound 0.4 µM
  relative viability: 0.354
NCI-H2009; first compound 1.265 µM
  relative viability: 0.276
NCI-H2009; first compound 4 µM
  relative viability: 0.213
NCI-H2170; first compound 0.04 µM
  relative viability: 0.415
NCI-H2170; first compound 0.1265 µM
  relative viability: 0.441
NCI-H2170; first compound 0.4 µM
  relative viability: 0.473
NCI-H2170; first compound 1.265 µM
  relative viability: 0.345
NCI-H2170; first compound 4 µM
  relative viability: 0.255
NCI-H2347; first compound 0.04 µM
  relative viability: 0.664
NCI-H2347; first compound 0.1265 µM
  relative viability: 0.6
NCI-H2347; first compound 0.4 µM
  relative viability: 0.58
NCI-H2347; first compound 1.265 µM
  relative viability: 0.506
NCI-H2347; first compound 4 µM
  relative viability: 0.437
NCI-H358; first compound 0.04 µM
  relative viability: 0.212
NCI-H358; first compound 0.1265 µM
  relative viability: 0.227
NCI-H358; first compound 0.4 µM
  relative viability: 0.235
NCI-H358; first compound 1.265 µM
  relative viability: 0.188
NCI-H358; first compound 4 µM
  relative viability: 0.206
NCI-H522; first compound 0.04 µM
  relative viability: 0.656
NCI-H522; first compound 0.1265 µM
  relative viability: 0.635
NCI-H522; first compound 0.4 µM
  relative viability: 0.661
NCI-H522; first compound 1.265 µM
  relative viability: 0.473
NCI-H522; first compound 4 µM
  relative viability: 0.501
NCI-H647; first compound 0.04 µM
  relative viability: 0.309
NCI-H647; first compound 0.1265 µM
  relative viability: 0.331
NCI-H647; first compound 0.4 µM
  relative viability: 0.344
NCI-H647; first compound 1.265 µM
  relative viability: 0.25
NCI-H647; first compound 4 µM
  relative viability: 0.203
NCI-H838; first compound 0.04 µM
  relative viability: 0.458
NCI-H838; first compound 0.1265 µM
  relative viability: 0.371
NCI-H838; first compound 0.4 µM
  relative viability: 0.347
NCI-H838; first compound 1.265 µM
  relative viability: 0.282
NCI-H838; first compound 4 µM
  relative viability: 0.235
SK-MES-1; first compound 0.04 µM
  relative viability: 0.347
SK-MES-1; first compound 0.1265 µM
  relative viability: 0.385
SK-MES-1; first compound 0.4 µM
  relative viability: 0.315
SK-MES-1; first compound 1.265 µM
  relative viability: 0.194
SK-MES-1; first compound 4 µM
  relative viability: 0.216
UMC-11; first compound 0.04 µM
  relative viability: 0.514
UMC-11; first compound 0.1265 µM
  relative viability: 0.468
UMC-11; first compound 0.4 µM
  relative viability: 0.328
UMC-11; first compound 1.265 µM
  relative viability: 0.294
UMC-11; first compound 4 µM
  relative viability: 0.309
